For the assay, the target named is Indoleamine 2,3-dioxygenase 1 (Homo sapiens, UniProt P14902). Nature of the assay: Inhibitory Activity Assay: The tested compounds and the reference compounds are dissolved in DMSO to prepare a high concentration of storage solution. The stock solution of reference compound was diluted with DMSO to prepare a 100× solution. In the first column of the working plate, 8 μL above tested compounds and 8 μL 100× reference compound were respectively added as the highest concentration, and then the highest concentrations were subjected to three times dilution to obtain 11 concentrations and prepare 100× solution. 0.5 μL solution was transferred from the above plate to the detection plate. To each well was added 0.5 μL 100× compound solution. For HPE and ZPE control wells, 0.5 μL 100% DMSO was added.25 μL 2×IDO1 (His-tag) enzyme solution (containing L-ascorbic acid, methylene blue, and catalase) was added to each well. 25 μL reaction solution without IDO1 (His-tag) enzyme was added into HPE control well. The test plate was centrifugated at 1000 rpm for 1 minute to mix well. Then, the test plate was incubated at room temperature for 30 minutes. 25 μL above 2× substrate (L-tryptophan) solution was added to each well. The test plate was centrifugated at 1000 rpm for 1 minute to mix well. The detection plate was placed on ELISA (SpectraMax M5e), the temperature was set at 25° C., and the absorbance (OD value) was measured at 320 nm every 10 minutes till 60 minutes.
Indoleamine 2,3-dioxygenase 1, sequence (P14902 whole entry): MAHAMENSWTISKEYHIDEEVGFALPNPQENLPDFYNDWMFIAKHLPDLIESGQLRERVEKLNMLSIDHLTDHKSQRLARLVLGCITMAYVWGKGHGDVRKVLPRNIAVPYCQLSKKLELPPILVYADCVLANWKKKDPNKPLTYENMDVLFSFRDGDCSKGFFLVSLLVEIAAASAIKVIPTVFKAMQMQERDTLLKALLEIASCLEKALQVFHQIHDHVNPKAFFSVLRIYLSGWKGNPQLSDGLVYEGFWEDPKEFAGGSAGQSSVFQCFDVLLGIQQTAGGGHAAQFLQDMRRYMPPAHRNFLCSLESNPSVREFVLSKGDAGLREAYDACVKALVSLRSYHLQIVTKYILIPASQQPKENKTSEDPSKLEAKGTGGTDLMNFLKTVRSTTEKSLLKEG

Compound `NS(=O)(=O)N1CCC(CSc2nonc2C(=NO)Nc2ccc(F)c(Br)c2)C1` (stereo unspecified) displayed an IC50 of 107 nM.

The values are drawn from ChEMBL document CHEMBL5729320, “Indoleamine-2,3-dioxygenase inhibitor, the preparative method and the use thereof” (2022).
